The values below come from ChEMBL document CHEMBL1132622, “Synthesis, structure-activity relationships, and in vivo evaluations of substituted di-tert-butylphenols as a novel class of potent, selective, and orally active cyclooxygenase-2 inhibitors. 2. 1,3,4- and 1,2,4-thiadiazole series” (J Med Chem, 1999).

Experiment [1] is filed under the species Rattus norvegicus. In words: Percentage inhibition of the prostaglandin synthesis was measured in rats. The class given is functional.
The species named for experiment [2] is Rattus norvegicus. In words: ED50 was measured by CFE assay method. The class given is functional.
For experiment [3], the species on record is Rattus norvegicus. In words: ED50 was measured by hyperalgesia assay method. The class given is functional.
The species entered for experiment [4] is Rattus norvegicus. In words: Lesion frequency was measured in rats. In kind it is functional.
The species entered for experiment [5] is Rattus norvegicus. The experiment can be described thus: Percentage of gastric damage was measured in rats. In kind it is functional, Stomach.
The target of experiment [6] is T1, Prostaglandin G/H synthase 2 (Homo sapiens, UniProt P35354).
T1 sequence (P35354 whole entry): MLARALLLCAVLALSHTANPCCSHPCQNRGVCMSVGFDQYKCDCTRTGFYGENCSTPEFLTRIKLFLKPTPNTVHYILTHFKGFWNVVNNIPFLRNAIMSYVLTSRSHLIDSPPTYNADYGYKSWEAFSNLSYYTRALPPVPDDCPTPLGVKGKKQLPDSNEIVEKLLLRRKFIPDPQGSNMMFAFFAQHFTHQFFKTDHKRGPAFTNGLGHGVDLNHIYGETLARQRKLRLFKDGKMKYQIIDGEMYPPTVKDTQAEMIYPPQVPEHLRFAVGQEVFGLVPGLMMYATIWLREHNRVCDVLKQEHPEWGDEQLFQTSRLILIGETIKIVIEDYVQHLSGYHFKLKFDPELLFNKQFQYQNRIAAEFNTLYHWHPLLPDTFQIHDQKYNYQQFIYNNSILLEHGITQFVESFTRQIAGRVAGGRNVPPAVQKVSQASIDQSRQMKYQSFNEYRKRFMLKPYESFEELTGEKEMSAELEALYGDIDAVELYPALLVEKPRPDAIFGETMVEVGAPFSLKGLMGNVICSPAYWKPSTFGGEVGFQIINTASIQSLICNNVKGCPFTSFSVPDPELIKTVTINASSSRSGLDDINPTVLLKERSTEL
The experiment can be described thus: Inhibition of recombinant human prostaglandin G/H synthase 2 (COX-2).

Experiment [7] has as its target T2, Prostaglandin G/H synthase 2 (Mus musculus, UniProt Q05769).
T2 sequence (Q05769 whole entry): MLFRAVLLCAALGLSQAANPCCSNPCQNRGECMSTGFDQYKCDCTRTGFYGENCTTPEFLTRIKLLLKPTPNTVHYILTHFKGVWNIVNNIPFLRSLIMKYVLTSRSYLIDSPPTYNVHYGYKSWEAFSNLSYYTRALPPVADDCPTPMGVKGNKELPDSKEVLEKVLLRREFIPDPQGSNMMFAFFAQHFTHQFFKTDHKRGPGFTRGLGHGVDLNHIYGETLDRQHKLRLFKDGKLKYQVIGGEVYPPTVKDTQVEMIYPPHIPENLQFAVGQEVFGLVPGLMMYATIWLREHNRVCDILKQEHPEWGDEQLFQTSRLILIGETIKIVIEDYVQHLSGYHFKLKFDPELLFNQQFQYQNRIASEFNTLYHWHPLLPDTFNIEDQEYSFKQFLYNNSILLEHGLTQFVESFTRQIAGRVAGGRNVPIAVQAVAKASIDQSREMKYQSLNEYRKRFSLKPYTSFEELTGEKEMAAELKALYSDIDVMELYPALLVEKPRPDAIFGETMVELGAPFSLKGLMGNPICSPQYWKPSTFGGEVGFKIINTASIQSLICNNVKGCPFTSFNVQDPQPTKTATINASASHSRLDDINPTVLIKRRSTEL
In words: IC50 value against Prostaglandin G/H synthase 2 of murine J774A.1 cell line.

The target in experiment [8] is Prostaglandin G/H synthase 1 (Homo sapiens, UniProt P23219). In words: IC50 value against Prostaglandin G/H synthase 1 of human platelet rich plasma. In kind it is cell-free.
In experiment [9] the target is T3, Prostaglandin G/H synthase 1 (Ovis aries, UniProt P05979).
T3 sequence (P05979 whole entry): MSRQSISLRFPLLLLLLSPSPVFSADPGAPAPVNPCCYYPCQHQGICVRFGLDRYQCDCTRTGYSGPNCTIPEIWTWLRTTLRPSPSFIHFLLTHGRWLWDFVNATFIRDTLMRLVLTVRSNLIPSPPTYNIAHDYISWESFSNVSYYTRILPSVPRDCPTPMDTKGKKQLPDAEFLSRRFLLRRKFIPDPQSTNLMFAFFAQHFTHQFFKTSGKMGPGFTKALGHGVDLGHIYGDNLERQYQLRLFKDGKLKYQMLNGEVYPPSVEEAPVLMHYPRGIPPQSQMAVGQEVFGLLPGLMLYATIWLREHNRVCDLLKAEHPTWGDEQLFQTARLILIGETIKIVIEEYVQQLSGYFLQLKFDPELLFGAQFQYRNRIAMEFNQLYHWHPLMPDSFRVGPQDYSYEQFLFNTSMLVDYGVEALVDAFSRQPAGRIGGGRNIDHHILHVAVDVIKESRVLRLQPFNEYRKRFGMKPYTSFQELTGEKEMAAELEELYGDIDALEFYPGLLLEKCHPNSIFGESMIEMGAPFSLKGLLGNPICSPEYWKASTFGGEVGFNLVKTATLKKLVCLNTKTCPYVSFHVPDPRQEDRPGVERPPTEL
In words: IC50 value against ovine Prostaglandin G/H synthase 1.

Experiment [10] has as its target T4, Prostaglandin G/H synthase 1 (Ovis aries) (UniProt P05979).
T4 sequence (whole entry): T3 sequence (P05979 whole entry)
The experiment can be described thus: IC50 value against ovine Prostaglandin G/H synthase 1 at 10 uM.

In experiment [11] the target is T2, Prostaglandin G/H synthase 2.
Experiment [12] addresses T4, Prostaglandin G/H synthase 1 (Ovis aries). In words: IC50 value against ovine Prostaglandin G/H synthase 1 at 30 uM.
Experiment [13] deals with T5, Prostaglandin G/H synthase 2 (Homo sapiens) (UniProt P35354).
T5 sequence (whole entry): T1 sequence (P35354 whole entry)
In words: IC50 value against recombinant human Prostaglandin G/H synthase 2 at 10 uM.

Sequence of Prostaglandin G/H synthase 1 (Homo sapiens, UniProt P23219) (P23219 whole entry): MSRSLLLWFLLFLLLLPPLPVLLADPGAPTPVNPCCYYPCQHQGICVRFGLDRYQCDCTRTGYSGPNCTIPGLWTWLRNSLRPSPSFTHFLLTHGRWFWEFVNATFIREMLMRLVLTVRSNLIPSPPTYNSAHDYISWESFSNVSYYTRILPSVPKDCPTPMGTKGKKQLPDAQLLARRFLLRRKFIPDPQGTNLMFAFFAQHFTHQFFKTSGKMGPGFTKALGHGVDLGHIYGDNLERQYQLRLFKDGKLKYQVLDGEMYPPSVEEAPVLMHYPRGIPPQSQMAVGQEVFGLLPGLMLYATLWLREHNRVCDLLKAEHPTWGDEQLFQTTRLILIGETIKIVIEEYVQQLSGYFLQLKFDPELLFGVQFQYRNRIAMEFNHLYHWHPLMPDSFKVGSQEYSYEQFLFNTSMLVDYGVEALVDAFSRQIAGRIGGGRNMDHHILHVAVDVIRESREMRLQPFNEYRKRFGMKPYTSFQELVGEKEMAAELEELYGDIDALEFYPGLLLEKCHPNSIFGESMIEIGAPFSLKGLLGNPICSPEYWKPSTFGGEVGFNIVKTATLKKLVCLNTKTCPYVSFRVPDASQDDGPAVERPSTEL

Consider `CS(=O)(=O)c1ccc(-n2nc(C(F)(F)F)cc2-c2ccc(F)cc2)cc1` [SC-58125], for which the Inhibition in the experiment listed under Rattus norvegicus [1] is -1.58%. The ED50 is > 30 mg/kg in the experiment listed under Rattus norvegicus [2] and 0.3 mg/kg in the experiment listed under Rattus norvegicus [3]. In the experiment filed under Rattus norvegicus [4], the Lesion frequency is listed as 0%. Also, the Damaged area in the experiment filed under Rattus norvegicus [5] worked out at 0%.
For the molecule `COc1ccc2c(c1)c(CC(=O)O)c(C)n2C(=O)c1ccc(Cl)cc1` [INDOMETHACIN], the Inhibition in the experiment listed under Rattus norvegicus [1] stood at 13.36%. Moreover, the ED50 in the experiment filed under Rattus norvegicus [2] came out at 1.6 mg/kg; in the experiment filed under Rattus norvegicus [3], 0.6 mg/kg. The molecule also had a Lesion frequency in the experiment listed under Rattus norvegicus [4] of 75%. The Damaged area in the experiment filed under Rattus norvegicus [5] is listed as 0.18%.
In the case of `CC(C)(C)c1cc(-c2nnc(NC#N)s2)cc(C(C)(C)C)c1O`, the IC50 in [6] was > 20 µM; in [7], “Not Active”; in experiment [8] it was 3600 nM; in experiment [9], > 20 µM. Also, the Inhibition in the experiment filed under Rattus norvegicus [1] came out at 22%. The ED50 in the experiment filed under Rattus norvegicus [2] stood at 7.7 mg/kg; in the experiment listed under Rattus norvegicus [3], 1.3 mg/kg. In the experiment filed under Rattus norvegicus [4], this molecule had a Lesion frequency of 12.5%. For the same molecule, the Damaged area in the experiment filed under Rattus norvegicus [5] was 0.02%.
As to `CCSc1nnc(-c2nc(C(C)(C)C)c(O)c(C(C)(C)C)n2)s1`, the IC50 is 2 µM in experiment [6], 680 nM in [8] and 18 nM in experiment [11]. The inhibition in experiment [10] worked out at 39%.
The molecule `CC(C)(C)c1cc(-c2nnc(N)s2)cc(C(C)(C)C)c1O` gave an inhibition in experiment [12] of 34%. Moreover, the IC50 came to 3.5 µM in [6], 530 nM in [8] and 110 nM in experiment [11].
`CSc1nc(-c2cc(C(C)(C)C)c(O)c(C(C)(C)C)c2)ns1`: the inhibition in experiment [10] is 16%; in experiment [13], 20%. The IC50 in [8] was found to be 3600 nM; in [11], 260 nM.
For the molecule `CC(C)(C)c1cc(-c2nnc(SCCC(=O)O)s2)cc(C(C)(C)C)c1O`, the IC50 in experiment [6] was > 20 µM; in experiment [7], “Not Active”; in experiment [8] it was > 20000 nM; in experiment [9], > 20 µM.
Take `CCCSc1nnc(-c2cc(C(C)(C)C)c(O)c(C(C)(C)C)c2)s1`: the 50% inhibitory concentration (IC50) is 100 µM in experiment [6], “Not Active” in experiment [7], 4100 nM in experiment [8] and > 20 µM in experiment [9].
In the case of `CCSc1nnc(-c2cc(C(C)(C)C)c(O)c(C(C)(C)C)c2)s1.C[N+](C)(C)CC[O-]`, the Inhibition in the experiment listed under Rattus norvegicus [1] was 77.4%. In the experiment filed under Rattus norvegicus [2], this molecule showed a 50% effective dose (ED50) of 7.1 mg/kg. This molecule showed a Lesion frequency in the experiment listed under Rattus norvegicus [4] of 12.5%. Besides, the Damaged area in the experiment filed under Rattus norvegicus [5] is 0.05%.
With `CSc1nnc(-c2cc(C(C)C)c(O)c(C(C)C)c2)s1`, the inhibition in experiment [10] came out at 25%; in experiment [13] it was 14%. Further, the IC50 in experiment [11] is > 20000 nM.
`CC(C)(C)c1cc(-c2nnc(SCC(F)(F)F)s2)cc(C(C)(C)C)c1O`: the IC50 in experiment [6] was > 20 µM; in experiment [7] it was “Not Active”; in experiment [8] it was > 20000 nM; in experiment [9], > 20 µM.
Regarding `CC(C)(C)c1cc(-c2nnc(SCCN)s2)cc(C(C)(C)C)c1O`, the half-maximal inhibitory concentration (IC50) in [6] was 41 µM; in [7], “Not Active”; in [8], > 20000 nM; in [9], 36 µM.
For `CC(C)(C)c1cc(-c2nnc(N=C(N)N)o2)cc(C(C)(C)C)c1O`, the inhibition in [12] amounted to 16%. In addition, the figures for the IC50 in experiment [6], in experiment [8] and in experiment [11] were 23 µM, 2800 nM and 330 nM, respectively.
Take `CC(C)(C)c1cc(-c2nsc(NC#N)n2)cc(C(C)(C)C)c1O`: the IC50 in [6] was 0.047 µM; in experiment [8], 1200 nM; in experiment [11], 26 nM; in experiment [9], 32 µM. Also, the Inhibition in the experiment listed under Rattus norvegicus [1] is 87.7%. The ED50 in the experiment listed under Rattus norvegicus [2] was 5.8 mg/kg; in the experiment listed under Rattus norvegicus [3], 0.2 mg/kg. Moreover, the Lesion frequency in the experiment filed under Rattus norvegicus [4] is on record as 87.5%. The Damaged area in the experiment listed under Rattus norvegicus [5] is recorded as 4.91%.
With `CS(=O)(=O)Nc1ccc([N+](=O)[O-])cc1OC1CCCCC1` [NS-398], the Inhibition in the experiment filed under Rattus norvegicus [1] is 30.7%. The ED50 in the experiment filed under Rattus norvegicus [2] stood at 0.61 mg/kg; in the experiment listed under Rattus norvegicus [3], 7.4 mg/kg. The molecule further came in with a Lesion frequency in the experiment listed under Rattus norvegicus [4] of 0%. In the experiment listed under Rattus norvegicus [5], this molecule registered a Damaged area of 0%.
As to `CCCSc1nnc(-c2cc(C(C)(C)C)c(O)c(C(C)(C)C)c2)o1`, the IC50 in experiment [6] is > 20 µM; in experiment [7] it was “Not Active”; in [8] it was 1900 nM; in experiment [9], > 20 µM.

A word on the Inhibition: it is the drop in the measured response relative to a control, in per cent. In general, ED50 refers to the dose at which the effect has come halfway, by size or by number of responders. The IC50 is the concentration needed to halve the response being measured. One may read the inhibition as the share of the control response that was lost under treatment.
